The target in one assay is T1, X-box-binding protein 1 (Homo sapiens, UniProt P17861).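 Also: confirmatory dose-response counter-screen serving a CHOP assay.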
T1 sequence (P17861 whole entry): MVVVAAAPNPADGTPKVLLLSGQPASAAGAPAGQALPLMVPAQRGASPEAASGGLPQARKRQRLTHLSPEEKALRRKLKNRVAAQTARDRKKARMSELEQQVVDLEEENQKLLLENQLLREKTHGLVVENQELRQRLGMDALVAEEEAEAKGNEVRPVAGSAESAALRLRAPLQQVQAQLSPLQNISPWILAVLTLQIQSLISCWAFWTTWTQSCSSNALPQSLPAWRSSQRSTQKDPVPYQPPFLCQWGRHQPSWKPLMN
The class given is functional, Cricetulus griseus.

Assay [1] deals with HEK293. Put plainly: cells. The class given is functional, cell-based. The following applies: Homo sapiens.
The subject of assay [2] is HEK293. The assay can be described thus: cells. The class given is functional, cell-based. The conditions noted are these: Homo sapiens. This is another data set of the same source.
In assay [3] the test system is HEK293. The assay can be described thus: NOD1 signaling inhibitors, primary screen, cell-based, luminescence, uHTS (AID 1578). Format: functional. The following applies: Homo sapiens.
In assay [4] the test system is HEK293. The assay can be described thus: cells. Format: functional, cell-based. The following applies: Homo sapiens. This is another data set of the same source.
Assay [5] deals with Nucleotide-binding oligomerization domain-containing protein 2 (Homo sapiens, UniProt Q9HC29). The assay can be described thus: NOD2 signaling inhibitors, cell-based, luminescence, uHTS, HEK293 (AID 1566). Format: functional.
Nucleotide-binding oligomerization domain-containing protein 2, sequence (Q9HC29 whole entry, the tested form may be a part): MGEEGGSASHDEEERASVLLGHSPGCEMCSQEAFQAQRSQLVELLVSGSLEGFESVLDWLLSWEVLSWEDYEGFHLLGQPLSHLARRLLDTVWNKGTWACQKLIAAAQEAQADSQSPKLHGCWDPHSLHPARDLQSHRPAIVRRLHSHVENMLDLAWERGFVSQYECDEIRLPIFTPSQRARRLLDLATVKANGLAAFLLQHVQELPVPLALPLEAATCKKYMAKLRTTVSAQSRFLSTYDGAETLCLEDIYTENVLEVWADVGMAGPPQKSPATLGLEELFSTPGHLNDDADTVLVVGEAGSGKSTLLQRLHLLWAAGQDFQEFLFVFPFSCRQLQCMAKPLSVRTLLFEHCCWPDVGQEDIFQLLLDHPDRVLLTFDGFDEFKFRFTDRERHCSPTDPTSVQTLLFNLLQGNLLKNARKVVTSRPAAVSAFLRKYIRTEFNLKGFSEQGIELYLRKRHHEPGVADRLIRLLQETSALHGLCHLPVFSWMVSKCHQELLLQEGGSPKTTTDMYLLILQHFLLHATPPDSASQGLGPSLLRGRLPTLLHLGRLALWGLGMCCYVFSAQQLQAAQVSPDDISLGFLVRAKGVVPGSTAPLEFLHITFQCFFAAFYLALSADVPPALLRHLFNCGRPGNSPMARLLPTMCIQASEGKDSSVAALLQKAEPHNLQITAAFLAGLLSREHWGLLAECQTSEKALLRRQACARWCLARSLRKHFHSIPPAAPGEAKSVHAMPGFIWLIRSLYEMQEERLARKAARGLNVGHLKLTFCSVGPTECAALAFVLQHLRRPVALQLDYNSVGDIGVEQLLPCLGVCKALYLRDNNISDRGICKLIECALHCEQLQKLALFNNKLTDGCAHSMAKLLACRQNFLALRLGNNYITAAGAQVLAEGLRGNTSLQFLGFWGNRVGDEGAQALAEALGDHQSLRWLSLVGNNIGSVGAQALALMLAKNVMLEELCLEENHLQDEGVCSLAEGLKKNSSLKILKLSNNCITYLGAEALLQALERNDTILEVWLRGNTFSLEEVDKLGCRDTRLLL
For assay [6], the system named is HEK293. The assay can be described thus: NOD2 signaling inhibitors in MDP-stimulated cells, cell-based, uHTS, luminescence (AID 2001). Format: functional. The following applies: Homo sapiens.
The subject of assay [7] is BJ. Put plainly: cytotoxicity toward BJ-TERT-LT-ST fibroblasts, dose response, cell-based, RAS-independent, luminescence (AID 1935).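 Also: BJ fibroblasts immortalized with TERT plus LT and ST oncogenes.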 The class given is functional. The conditions noted are these: Homo sapiens.
Assay [8] has as its system BJ. Put plainly: cells. The following applies: Homo sapiens. Format: functional, cell-based.
Assay [9] has as its system BJ. Put plainly: cytotoxicity toward Ras-transformed BJeLR fibroblasts, dose response, cell-based, alamar blue fluorescence, cherrypicked samples (AID 2631).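 Also: confirmatory dose-response assay in RAS-dependent BJ fibroblasts engineered with TERT, LT and ST, with cytotoxicity read by fluorescence.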 Format: functional. The following applies: Homo sapiens. (In general: Resazurin is reduced to fluorescent resorufin, in cell work by metabolically active cells.)
Assay [10] has as its system BJ. The assay can be described thus: cytotoxicity toward BJ-TERT fibroblasts, dose response, cell-based, RAS-independent, luminescence (AID 1933). The class given is functional. The following applies: Homo sapiens.
A short description of assay [11]: cytotoxicity toward DRD oncogenic fibroblasts, dose response, cell-based, non-viral oncogenic, luminescence (AID 1934). The class given is functional. The following applies: Homo sapiens.
Assay [12] can be described thus: Luminescence Cell-Based Dose Retest to Confirm Inhibitors of Cancer Stem Cells. [Related pubchem assays (depositor defined):AID2717, AID2721]. The class given is functional. The following applies: Homo sapiens.
Assay [13] has as its target T2, Estrogen receptor beta (Homo sapiens, UniProt Q92731).
The target in assay [14] is T2, Estrogen receptor beta. The assay can be described thus: ERβ–SRC-3 coactivator interaction inhibitors, confirmation, orthogonal assay, biochemical, ELISA, streptavidin-HRP readout (AID 1060). A general note: In an ELISA, binding on a coated surface is turned into a signal by an enzyme label.
Assay [15] concerns the target T3, Ubiquitin-conjugating enzyme E2 N (Homo sapiens, UniProt P61088).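 Also: Dose-response confirmation in a TR-FRET assay detecting UBC13-driven polyubiquitin chain formation, inhibition measured.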
T3 sequence (P61088 whole entry): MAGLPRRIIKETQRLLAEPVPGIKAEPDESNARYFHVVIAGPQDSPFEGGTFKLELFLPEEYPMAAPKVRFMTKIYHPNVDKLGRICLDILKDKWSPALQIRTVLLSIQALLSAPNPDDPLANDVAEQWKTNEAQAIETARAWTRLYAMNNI
The class given is functional.

Assay [16] can be described thus: ZM109 Env clade C HIV-1 fusion inhibitors, dose response, HeLa effector, CEM target cells, luciferase, cherry-pick (AID 652058). Format: functional, cell-based.
Assay [17] is described as follows: inhibitors of HIV Env-driven cell fusion, dose response, cherry-pick (AID 652057). Format: functional, cell-based.
Assay [18] in a line: off-target signal loss in HeLa-CEM21 co-culture – HeLa F-luc CTL cells, cherry-picked, counter-screen for HIV-1 Env fusion inhibitor project, dose response (AID 652040).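 Also: potency for signal decrease marking cytotoxic or nonspecific inhibition.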 Format: functional, cell-based. In general terms: A counterscreen serves to expose hits that act by an unwanted route or on another target.
Assay [19] in a line: inhibitors of clade B AD8 Env fusion, dose response, cell-based, cherry-pick (AID 652062).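 Also: luciferase signal from cell-cell fusion driven by HIV-1 clade B AD8 Env; potency is for inhibitors of fusion seen as a drop in luminescence.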 Format: functional.
Another assay concerns the target Paired box protein Pax-8 (Homo sapiens, UniProt Q06710). Put plainly: inhibitors of PAX8-driven TPO luciferase reporter, dose response, RMG-I cells, cherry-pick (AID 687027).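 Also: luciferase reporter driven by Pax8 target thyroperoxidase promoter measured by SteadyGlo luminescence.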 Format: functional, cell-based.
Assay [20] can be described thus: cytotoxicity in OVCAR8 ovarian cancer cells, dose response, PAX8 project, cell-based, plate reader, dry powder samples (AID 743197). The class given is functional. The following applies: OVCAR-8.
In another assay the test system is P388/ADR. Put plainly: cells. The class given is functional. The following applies: Mus musculus.
In another assay the test system is H4. The assay can be described thus: Luminescence Cell-Based Dose Response HTS to Identify Activators of 5'UTR Stem-Loop Driven Prion Protein mRNA Translation in H4 Neuroglioblastoma Cells. [Related pubchem assays: 1829 (Project Summary), 1814 (Primary HTS)]. The class given is functional. The conditions noted are these: Homo sapiens.
In a further assay the test system is SN12K1. The assay can be described thus: cells. Format: functional. The conditions noted are these: Homo sapiens.
For the next assay, the system named is P388. Put plainly: cells. The class given is functional. The conditions noted are these: Mus musculus.

Activity calls are given as the source filed them.

T2 sequence (Q92731 whole entry): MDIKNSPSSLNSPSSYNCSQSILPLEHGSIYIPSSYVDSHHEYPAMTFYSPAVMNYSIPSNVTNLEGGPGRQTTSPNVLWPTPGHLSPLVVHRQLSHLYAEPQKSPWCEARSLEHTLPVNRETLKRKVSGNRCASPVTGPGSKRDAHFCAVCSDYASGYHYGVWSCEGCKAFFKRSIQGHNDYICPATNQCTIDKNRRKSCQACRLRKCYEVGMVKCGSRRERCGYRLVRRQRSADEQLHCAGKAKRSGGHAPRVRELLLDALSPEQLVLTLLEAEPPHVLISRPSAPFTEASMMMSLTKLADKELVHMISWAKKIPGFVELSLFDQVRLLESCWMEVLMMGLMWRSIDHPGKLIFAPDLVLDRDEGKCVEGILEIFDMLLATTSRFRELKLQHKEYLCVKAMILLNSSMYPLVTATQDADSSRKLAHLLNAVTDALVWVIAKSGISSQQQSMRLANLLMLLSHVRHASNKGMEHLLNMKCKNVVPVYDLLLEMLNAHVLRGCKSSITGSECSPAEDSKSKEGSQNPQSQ
Paired box protein Pax-8, sequence (Q06710 whole entry): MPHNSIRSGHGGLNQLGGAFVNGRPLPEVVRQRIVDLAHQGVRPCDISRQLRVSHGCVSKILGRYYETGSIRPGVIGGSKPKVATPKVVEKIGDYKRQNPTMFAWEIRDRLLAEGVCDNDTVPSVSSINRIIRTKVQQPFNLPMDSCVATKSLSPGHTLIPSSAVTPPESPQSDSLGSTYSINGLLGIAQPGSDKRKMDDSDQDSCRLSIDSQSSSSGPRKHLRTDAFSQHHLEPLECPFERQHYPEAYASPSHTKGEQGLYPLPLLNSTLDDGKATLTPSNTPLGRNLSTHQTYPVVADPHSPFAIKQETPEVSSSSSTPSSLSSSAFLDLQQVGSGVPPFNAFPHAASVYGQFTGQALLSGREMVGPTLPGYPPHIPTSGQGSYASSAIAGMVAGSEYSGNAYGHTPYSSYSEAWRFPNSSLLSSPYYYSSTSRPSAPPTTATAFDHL

As for `CCC1CCc2c(sc(NC(=O)c3ccoc3C)c2C(N)=O)C1` (stereo not given), the “Absolute IC50 (XBP1)” value on X-box-binding protein 1 amounted to 10 µM.

As for `O=C(COc1ccc(Cl)cc1)Nc1nc(-c2ccc(S(=O)(=O)N3CCOCC3)cc2)cs1`, the IC50 was 3.9 µM (active) in the assay on HEK293 [1], > 20 µM (inactive) in the assay on HEK293 [2], > 20 µM (inactive) in the assay on HEK293 [4] and 4.96 µM (active) with HEK293 [6]. The EC50 in the assay with HEK293 [3] is 10.3 µM (active); in assay [5], 17 µM (active).

Regarding `Cn1cnc(Sc2[nH]cnc3ncnc2-3)c1[N+](=O)[O-]`, the concentration for a half-maximal effect (EC50) in the assay on BJ [7] was > 150 µM (not active); in the assay on BJ [8], 8.4 µM (active); in the assay with BJ [9], > 133 µM (inactive); in the assay with BJ [10], > 150 µM (not active); in assay [11], 13 µM (active). The AC50 in assay [12] is 1.42 µM (active).

As for `O=C(Nc1ccc2c(c1)OCO2)c1cccc2c1C(=O)N(Cc1cccnc1)C2`, the IC50 is recorded as > 50 µM (not active) against Estrogen receptor beta [13] and 3.13 µM (not active) on Estrogen receptor beta [14].

For the compound `CC1CCCC(C)N1CCCNC(=O)C1CCCN(c2ncnc3c2nc2n3CCCCC2)C1` (stereo not given), the IC50 in [15] is > 20 µM (inactive).

With `CC(C)CN(C(=O)c1ccc(S(=O)(=O)N2CCCCC2)cc1)C1CCS(=O)(=O)C1` (stereo not given), the AC50 in assay [16] was 6.21 µM (active).

Consider `C=C1CCN([C@@H](Cc2ccccc2)C(=O)NCCC(C)C)S(=O)(=O)c2ccccc21`, for which the concentration at half-maximal activity (AC50) in [17] was 3.91 µM (active); in assay [18] it was 6.85 µM (active); in assay [19] it was 24.1 µM (active); in assay [16], 3.56 µM (active).

As for `C[C@@H]1CCCCO[C@@H](CN(C)C(=O)Nc2ccc(C(F)(F)F)cc2)[C@H](C)CN([C@H](C)CO)C(=O)c2cc(NS(=O)(=O)c3ccccc3)ccc2O1`, the values for the AC50 (at Paired box protein Pax-8; in assay [20]) were 6.96 µM (active) and > 70 µM (inactive), respectively.

Turning to `Cc1ccc(Cc2cncc(O)c2)cc1S(=O)(=O)O`, the 50% inhibitory concentration (IC50) is 13.5 µM (active) on Estrogen receptor beta [13] and 0.353 µM (not active) at Estrogen receptor beta [14].

With `Nc1ncn([C@H]2C[C@H](O)[C@@H](CO)O2)c(=O)n1` [DECITABINE], the values for the 50% growth inhibitory concentration (GI50) with P388/ADR, with SN12K1 and in the assay with P388 were 95.9 nM (active), > 375 µM (inactive) and 51 nM (active), respectively. In addition, the EC50 in the assay on H4 is 94.9 µM (active). In addition, the AC50 in [18] was > 70 µM (inactive).

As a reminder, the IC50 is the concentration at which inhibition is half-maximal. Usually EC50 stands for the midpoint of the concentration-response curve. The AC50 is the concentration giving half of the maximal activity seen. Usually GI50 stands for the concentration giving 50% growth inhibition.

(Values after ChEMBL document CHEMBL1201862, “PubChem BioAssay data set” (2004).)
